According to patent publication US11000529B2, “Human papilloma virus replication inhibitors” (Icosagen Cell Factory OÜ, priority 2015, dated 2021):
Entries after “also recorded” stand apart in the source; their conditions may differ.

Tests used:
[1] = tested on: HPV18; experiment: HPV18 initial amplification replication assay in U2OS cells (Southern Blot); type: cell-based; details: for IC50: 120 h, read-out: IC50 of HPV18 initial amplification; for inhibition of HPV18 initial amplification: HPV18 wt minicircle, 5 days, Southern Blot, relative to DMSO; for HPV18 replication after shRNA downregulation: 3 and 4 days after transfection, vs empty shRNA plasmid
Text: FIG. 2 Effect of the identified five compounds on HPV18 initial amplification. A: U2OS cells were transfected with HPV18 wt minicircle and grown in the presence of the compounds with indicated concentrations for 5 days. Genomic DNA was extracted, linearized, and digested with DpnI. HPV genome replication signals were detected using Southern Blot analyses and quantified with phosphoimager and expressed relative to vehicle control (DMSO). Approximate IC50 values are shown for each compound. Error-bars represent standard deviation from at least three independent experiment. B: U2OS cells were transfected with the expression vectors of HPV18 E1 and E2 proteins together with HPV18 URR (origin) minicircle plasmid. The cells were grown in the presence of the compounds with indicated concentrations for 24 or 48 hours. Genomic DNA was extracted, linearized and digested with DpnI. HPV URR replication signals were detected by Southern Blot analyses. DMSO serves as vehicle control and M 18URR serves as size marker.
(§1) Replication assay. The U2OS or U2OS-EBNA1 cells were transfected with 2 ug of HPV18 minicircle genome and lug of oriP plasmid (only in case of U2OS-EBNA1 cells). All the compounds were added to the media immediately after the transfection and media was changed on the third day. Replication signals were detected with Southern Blot method. Briefly, genomic DNA was extracted 3 and 4 days after the transfection with sh_RNAs or with the use of ABT-888 and 5 days after for analyses of the effects of HPV inhibitors w/wo CPT. DNA was digested with BglI and DpnI for analyses of HPV18 replication and with BstXI, ScaI and DpnI for analyses of HPV18 and oriP replication simultaneously. 3 ug of DNA was resolved in agarose gel, transferred to a nylon membrane (Membrane Solutions LLC) and hybridized with specific radioactively labeled probes. Signals were detected and quantified with Typhoon Trio+ phosphoimager (GE Healthcare) and exposed on an X-ray film (AGFA).
for compounds inhibiting initial amplification of HPV18 genome in U2OS cells. HT-screening was conducted with all the compounds in this library in 5 uM and 1 uM concentrations and it gave us 80 hits (approximately 5% of analyzed compounds). After validation of the hits on HPV18 wt genome, we found five compounds inhibiting initial amplification of HPV18 in U2OS cells (FIG. 1). To further characterize the compounds, we performed replication assay described in Example 1.

[2] = tested on: HPV18; experiment: HPV18 replication in U2OS-EBNA1 cells, compounds alone or with CPT; type: cell-based; details: 5 days; for synergistic effect together with CPT on HPV18 replication: U2OS-EBNA1, with 2 nM CPT
Protocol: FIG. 5 Synergistic effect between Camptothecin (CPT) and the identified five compounds. U2OS-EBNA1 cells were transfected with HPV18 wt and oriP plasmids and grown in the presence of indicated concentrations of the compounds alone or together with 2 nM CPT for 5 days. Genomic DNA was extracted, linearized and digested with DpnI. Both HPV18 and oriP replication signals were detected with Southern Blot and quantified by phosphoimager. […] Error-bars represent standard deviations from at least three independent experiments.
as §1
Synergistic effect of Campthotecin (CPT) and HPV18 replication inhibitors. CPT is a Topoisomerase I inhibitor that stabilizes entrapped Top1cc complexes to DNA. Since Tdp1 is responsible for cleaving entrapped Top1cc complexes from DNA, synergistic effect between CPT and Tdp1 inhibitors occurs. In the experiments shown in FIG. 5 we used U2OS cells constitutively expressing Epstein Barr virus (EBV) EBNA1 protein—U2OS-EBNA1. These cells allow to monitor HPV and EBNA1 supported oriP plasmid replication simultaneously. […] U2OS-EBNA1 cells were cotransfected with HPV18 genome and oriP plasmid and the cells were grown in the presence of various concentrations of the identified HPV inhibitors alone or together with 2 nM of CPT for 5 days, DMSO was used as vehicle control.

[3] = tested on: HPV18; experiment: Stable maintenance of HPV18 in U2OS #1.13 cells, subconfluent; type: cell-based; details: U2OS #1.13, subconfluent, 7 days; for HPV18 replication signal lost: compared to DMSO control
Protocol: (§2) FIG. 3 Effect of compounds on stable maintenance and vegetative amplification of HPV18. A: U2OS #1.13 cells were grown in subconfluent conditions in the presence of the identified five compounds for 7 days. Genomic DNA was extracted, linearized and HPV replication signal was detected by Southern Blot and B: quantified by phosphoimager. C: U2OS #1.13 were seeded and grown for 5 days without splitting. On the 5th day indicated concentrations of compounds were added to the media and the cells were grown for additional 7 days without splitting. On the 12th day genomic DNA was extracted, linearized and HPV replication signal was detected by Southern Blot and D: quantified by phosphoimager. Error-bars represent standard deviations from at least two independent experiments.
Our U2OScell-based system is suitable for studying all three replication stages of various HPV subtypes. Stable maintenance phase could be monitored by maintaining HPV-positive cells in subconfluent conditions. We used HPV18 positive monoclonal U2OS cell-line #1.13 with viral copy number ˜2000. We grew the #1.13 cells in the presence of various concentration of compounds in subconfluent conditions (cells were split every three days) for 7 days. HPV18 replication signal was detected by Southern blot analyses and quantified with phosphoimager. About 50% of the signal was lost in case of compound 82269 compared to the DMSO control (FIG. 3, panel A, compare lanes 4-6 with lane 15 and panel B).

[4] = tested on: HPV18; experiment: Vegetative amplification of HPV18 in U2OS #1.13 cells, confluent; type: cell-based; details: U2OS #1.13, confluent, compounds added on 5th day for additional 7 days
Protocol: as §2
If #1.13 is grown in confluent conditions for at least 5 days, vegetative amplification of HPV genome is turned on. We seeded equal amounts of cells onto plates and grew them for 5 days without splitting. On the 5th day various concentrations of compound were added and the cells were grown for additional 7 days (media was changed every two days throughout the experiment). HPV replication signal was detected by Southern Blot analyses and quantified with phosphoimager.

[5] = biological target: Tdp (Homo sapiens, UniProt Q9NUW8); details: known from the literature; cited from earlier work
[6] = tested on: PARP1; experiment: Western Blot of PARP1 after shRNA in U2OS cells; type: cell-based
Text: (§3) FIG. 4 Involvement of Tdp1 and PARP1 in HPV18 initial amplification. A: U2OS cells were transfected with HPV18 wt minicircle and sh_Tdp1 plasmid. Genomic DNA was extracted 3 and 4 days after the transfection, linearized and digested with DpnI. HPV replication signal was detected with Southern Blot analyses and B: quantified with phosphoimager. C: Western Blot analyses showing downregulation of Tdp1 protein by shRNA. D: U2OS cells were transfected with HPV18 wt minicircle and sh_PARP1 plasmid. HPV replication signal was detected with Southern Blot analyses and E: quantified with phosphoimager. F: Western Blot analyses showing downregulation of PARP1 protein by shRNA. G: U2OS cells were transfected with HPV18 wt minicircle and grown for 3 and 4 days in the presence of different concentrations of PARP1 inhibitor ABT-888. HPV replication signal was detected with Southern Blot analyses and H: quantified with phosphoimager. Error-bars represent standard deviations from at least three independent experiments.
(§4) Western Blot. The cells were lysed with Laemmli buffer (4% SDS, 20% glycerol, 120 mM Tris-Cl (pH 6.8), and 200 mM DTT) and boiled for 10 minutes at 100° C. […] Tdp1 and PARP1 were detected with their specific antibodies from Santa Cruz Biotechnology: sc-365674 and sc-56197 respectively. Tubulin (used as loading control) was detected using Sigma Aldrich antibody T9026. […]

[7] = tested on: Tdp1; experiment: Western Blot of Tdp1 after shRNA in U2OS cells; type: cell-based
Text: as §3, §4

Sequence of Tdp (Q9NUW8 whole entry): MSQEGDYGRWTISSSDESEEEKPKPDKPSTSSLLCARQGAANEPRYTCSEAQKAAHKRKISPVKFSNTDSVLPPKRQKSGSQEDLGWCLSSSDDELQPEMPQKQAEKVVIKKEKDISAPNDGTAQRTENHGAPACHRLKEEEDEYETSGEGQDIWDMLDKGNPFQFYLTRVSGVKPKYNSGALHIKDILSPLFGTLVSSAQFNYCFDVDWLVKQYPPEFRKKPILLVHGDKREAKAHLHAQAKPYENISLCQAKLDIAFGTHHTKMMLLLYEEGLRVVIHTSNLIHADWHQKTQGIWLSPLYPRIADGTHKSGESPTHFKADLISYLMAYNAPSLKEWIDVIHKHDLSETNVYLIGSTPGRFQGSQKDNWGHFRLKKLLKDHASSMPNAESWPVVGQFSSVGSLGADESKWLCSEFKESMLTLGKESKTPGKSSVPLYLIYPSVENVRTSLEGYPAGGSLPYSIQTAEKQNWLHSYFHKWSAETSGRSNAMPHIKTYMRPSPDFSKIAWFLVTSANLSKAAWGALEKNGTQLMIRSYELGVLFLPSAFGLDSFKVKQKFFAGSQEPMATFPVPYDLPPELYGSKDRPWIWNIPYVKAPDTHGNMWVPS

Row | Compound | synergistic effect together with CPT on HPV18 replication [2] | effect on stable maintenance of HPV18 [3] | HPV18 replication signal lost [3] | IC50 [1] [µM] | inhibition of HPV18 initial amplification [1] | effect on vegetative amplification of HPV18 [4] | further results
1 | C[C@]1(c2nc3c(C(N)=O)cccc3[nH]2)CCCN1 [ABT-888, veliparib, reference compound] |  |  |  |  |  |  | HPV18 replication in presence of PARP1 inhibitor ([1]; 3 and 4 days, various concentrations, vs DMSO): HPV18 replication is decreased
2 | CC[C@@]1(O)C(=O)OCc2c1cc1n(c2=O)Cc2cc3ccccc3nc2-1 [CPT, Camptothecin, reference compound] |  |  |  |  |  |  | HPV18 initial amplification, CPT alone ([2]; U2OS-EBNA1, 2 nM): did not inhibit
3 | CSc1ncc2[nH]c(C(O)c3ccccc3)nc2n1 (stereo not drawn) [NSC82269] | no synergistic effect; also recorded: does not | clearly inhibit | About 50% | 2.5 to 60 | concentration-dependent inhibition | clear concentration-dependent inhibition; also recorded: clearly inhibit | 
4 | Cc1cc(O)cc2c1[C@H]1CC[C@]3(C)C(=O)CC[C@H]3[C@H]1C=C2 [NSC 9782] | clear concentration dependent synergistic effect; also recorded: clear synergistic inhibition | no significant reduction in signal; also recorded: does not inhibit any of the later replication stages |  | 2.5 to 60 | concentration-dependent inhibition | did not have any effect; also recorded: does not inhibit any of the later replication stages | 
5 | C[C@]12CC[C@H]3[C@H](CCC4=CC(=O)CC[C@@]43C)[C@@H]1CC[C@@H]2C(=O)COS(=O)(=O)c1ccc(Br)cc1 [NSC 88915] | clear concentration dependent synergistic effect; also recorded: clear synergistic inhibition | only inhibits stable maintenance phase | about 70% | 2.5 to 60 | concentration-dependent inhibition | did not have any effect | Tdp inhibition [5]: known to inhibit Tdp
6 | CC(=O)OC1CCC2(C)C(CCC3C2CC(=O)C2(C)C3CC(N3CC3)C2C(C)=O)C1 (stereo not drawn) [NSC 109128] | clear concentration dependent synergistic effect; also recorded: clear synergistic inhibition | clearly inhibit | about 70% | 2.5 to 60 | concentration-dependent inhibition | almost completely abolished amplification; also recorded: clearly inhibit | 
7 | shRNA_PARP1: PARP1 shRNA plasmid, SEQ ID NO: 2, expression under RNA polymerase III promoter U6 (DNA GGACTCGCTCCGGATGGCCTTCAAGAGAGGCCATCCGGAGCGAGTCC) [reference compound] |  |  |  |  |  |  | PARP1 expression [6]: decreased; HPV18 replication after shRNA downregulation [1]: inhibits HPV18 replication significantly
8 | shRNA_Tdp1: Tdp1 shRNA plasmid, SEQ ID NO: 1, expression under RNA polymerase III promoter U6 (DNA GCACGATCTCTCTGAAACAAACTCGAGTTTGTTTCAGAGAGATCGT) [reference compound] |  |  |  |  |  |  | Tdp1 expression [7]: decreased significantly; HPV18 replication after shRNA downregulation [1]: clear decrease in HPV18 replication
